Reference: patent US20140135310A1, “SULPHONAMIDE DERIVATIVES OF ALICYCLIC AMINES FOR THE TREATMENT OF CENTRAL NERVOUS SYSTEM DISEASES” (Adamed Sp. z o.o., priority 2011, published 2014)
pKi: −log10 of the molar value.

Experiments:
M3 muscarinic receptors = molecular target: T1, M3 muscarinic receptors (Homo sapiens, UniProt P20309); assay: Radioligand binding assay, muscarinic M3 receptors; conditions: test compound 1×10^−6 M
T1 construct: expressed in transfected cells; host or cells: CHO cells
Method in brief: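 Radioligand competition binding, detected by scintillation counting; non-specific binding defined with excess unlabelled ligand. Results given as % inhibition of control specific binding; IC50 from Hill-equation fit of competition curves, Ki via Cheng-Prusoff with radioligand KD from Scatchard plot.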

5-HT7 receptor = molecular target: T2, 5-HT7 receptor (Homo sapiens, UniProt P34969); assay: Radioligand binding assay, serotoninergic 5-HT7 receptors; conditions: binding assay result in %, Table 5a;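 note: test compound at 1 µM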
T2 construct: purchased PerkinElmer
Method in brief: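 Competition binding at human 5-HT7 receptors with a radioligand, detected by scintillation counting; non-specific binding was defined with excess unlabelled ligand. IC50 came from Hill-equation fits of competition curves, and Ki from Cheng–Prusoff using radioligand concentration and Scatchard-derived KD.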

[1] = molecular target: T3, H1 histaminergic receptors (Homo sapiens, UniProt P35367); assay: Radioligand binding assay, histaminergic H1 receptors; conditions: human recombinant (HEK-293 cells), [3H]pyrilamine 1 nM
T3 construct: expressed in transfected cells; host or cells: HEK-293 cells
Method in brief: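 Competition binding at human H1 receptors; specific binding taken as total minus non-specific binding in excess unlabelled ligand, scintillation read-out. IC50 from Hill-equation fit of competition curves; Ki by Cheng-Prusoff using radioligand concentration and Kd (from Scatchard plot).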

5-HT6 receptor = molecular target: T4, 5-HT6 receptor (Homo sapiens, UniProt P50406); assay: Radioligand binding assay, serotoninergic 5-HT6 receptors; conditions: for inhibition at 1 µM / 5-HT6 [%]: binding assay result in %, Table 5a; for pKi: read-out: Inhibition constants Ki, 5-HT6;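 for 5-HT6 [%]: test compound at 1 µM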
T4 construct: purchased PerkinElmer
Method in brief: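 Values are Ki from Cheng–Prusoff, taking IC50 from Hill nonlinear regression of competition curves and KD from a Scatchard plot. Specific binding was total minus binding with excess unlabelled ligand. Radioligand displacement was detected by scintillation counting, and data were also reported as percent of control specific binding.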

[2] = molecular target: dopaminergic receptors D3 (Homo sapiens, UniProt P35462); assay: Radioligand binding assay, dopaminergic D3 receptors; conditions: test compound 1×10^−6 M
Method in brief: (§1)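 Competition radioligand binding at human D2, D3 and D4.4 receptors, detected by scintillation counting; nonspecific binding defined with excess unlabelled ligand. Results as percent inhibition of control specific binding; IC50 by Hill-equation nonlinear regression; Ki via Cheng-Prusoff, with radioligand KD from Scatchard plot.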

5-HT2C receptor = molecular target: T5, 5-HT2C receptor (Homo sapiens, UniProt P28335); assay: Radioligand binding assay, serotoninergic 5-HT2C receptors; conditions: test compound 1×10^−6 M
T5 construct: expressed in transfected cells; host or cells: HEK-293 cells
T5 sequence (P28335 33-458): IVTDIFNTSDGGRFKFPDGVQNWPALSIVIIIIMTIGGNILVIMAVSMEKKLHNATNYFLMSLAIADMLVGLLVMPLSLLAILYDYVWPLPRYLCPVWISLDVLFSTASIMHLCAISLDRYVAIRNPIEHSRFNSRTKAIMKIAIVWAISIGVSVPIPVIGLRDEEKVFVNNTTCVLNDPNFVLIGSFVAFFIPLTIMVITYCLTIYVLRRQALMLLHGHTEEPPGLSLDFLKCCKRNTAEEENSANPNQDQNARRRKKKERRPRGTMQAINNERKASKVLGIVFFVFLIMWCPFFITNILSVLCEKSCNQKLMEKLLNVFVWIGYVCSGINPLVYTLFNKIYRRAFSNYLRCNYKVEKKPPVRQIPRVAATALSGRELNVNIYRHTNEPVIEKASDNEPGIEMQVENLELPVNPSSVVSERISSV

receptors D4.4 = molecular target: T6, receptors D4.4 (Homo sapiens, UniProt P21917); assay: Radioligand binding assay, dopaminergic D4 (D4.4) receptors; conditions: test compound 1×10^−6 M
T6 sequence (P21917 1-419): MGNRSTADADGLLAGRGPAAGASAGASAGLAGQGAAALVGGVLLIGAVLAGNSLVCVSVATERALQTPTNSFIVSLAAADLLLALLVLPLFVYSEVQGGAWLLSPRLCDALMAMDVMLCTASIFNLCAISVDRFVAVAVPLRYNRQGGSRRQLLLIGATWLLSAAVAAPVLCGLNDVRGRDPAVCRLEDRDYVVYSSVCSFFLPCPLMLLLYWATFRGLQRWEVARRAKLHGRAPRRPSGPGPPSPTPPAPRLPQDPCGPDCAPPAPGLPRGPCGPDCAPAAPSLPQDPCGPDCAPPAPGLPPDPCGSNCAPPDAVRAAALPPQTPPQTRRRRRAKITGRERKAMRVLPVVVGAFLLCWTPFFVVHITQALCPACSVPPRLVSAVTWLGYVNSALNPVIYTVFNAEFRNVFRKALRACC
Method in brief: as §1

5-HT2A receptor = molecular target: T7, 5-HT2A receptor (Homo sapiens, UniProt P28223); assay: Radioligand binding assay, serotoninergic 5-HT2A receptors; conditions: for inhibition at 1 µM / 5-HT2A [%]: binding assay result in %, Table 5a; for pKi: read-out: Inhibition constants Ki, 5-HT2A
T7 construct: purchased PerkinElmer
Method in brief: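 Radioligand competition binding with scintillation counting; nonspecific binding defined by excess unlabelled ligand. Data as percent inhibition of control specific binding. IC50 by Hill-equation fit of competition curves; Ki by Cheng-Prusoff, with radioligand Kd from Scatchard plot.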

T1 sequence (P20309 whole entry): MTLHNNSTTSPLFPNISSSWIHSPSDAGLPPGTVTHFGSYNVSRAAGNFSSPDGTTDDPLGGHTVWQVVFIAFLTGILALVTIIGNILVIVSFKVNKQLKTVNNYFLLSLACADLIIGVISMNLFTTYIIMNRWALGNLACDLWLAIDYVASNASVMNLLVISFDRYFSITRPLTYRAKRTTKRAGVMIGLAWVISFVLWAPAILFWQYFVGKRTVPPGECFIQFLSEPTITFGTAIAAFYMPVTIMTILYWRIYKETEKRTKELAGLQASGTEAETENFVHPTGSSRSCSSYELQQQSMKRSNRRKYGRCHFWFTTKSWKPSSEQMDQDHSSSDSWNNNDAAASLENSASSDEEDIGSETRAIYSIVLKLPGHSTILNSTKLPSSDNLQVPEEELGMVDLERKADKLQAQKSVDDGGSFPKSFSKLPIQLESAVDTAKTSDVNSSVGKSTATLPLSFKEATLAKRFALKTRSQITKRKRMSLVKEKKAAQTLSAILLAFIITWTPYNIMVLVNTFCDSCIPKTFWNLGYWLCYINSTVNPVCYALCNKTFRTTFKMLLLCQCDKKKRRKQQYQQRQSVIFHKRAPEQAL
Sequence of dopaminergic receptors D3 (P35462 whole entry): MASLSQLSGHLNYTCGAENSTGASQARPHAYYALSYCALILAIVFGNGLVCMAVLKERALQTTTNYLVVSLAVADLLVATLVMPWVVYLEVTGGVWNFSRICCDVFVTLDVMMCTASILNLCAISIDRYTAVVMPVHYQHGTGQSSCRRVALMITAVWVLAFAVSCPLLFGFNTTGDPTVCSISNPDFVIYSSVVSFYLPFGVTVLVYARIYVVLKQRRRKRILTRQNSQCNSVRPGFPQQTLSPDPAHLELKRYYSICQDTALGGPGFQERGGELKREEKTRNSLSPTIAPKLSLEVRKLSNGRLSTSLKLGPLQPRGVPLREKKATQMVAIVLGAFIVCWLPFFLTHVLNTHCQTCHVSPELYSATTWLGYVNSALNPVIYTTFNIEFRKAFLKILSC
T7 sequence (P28223 whole entry): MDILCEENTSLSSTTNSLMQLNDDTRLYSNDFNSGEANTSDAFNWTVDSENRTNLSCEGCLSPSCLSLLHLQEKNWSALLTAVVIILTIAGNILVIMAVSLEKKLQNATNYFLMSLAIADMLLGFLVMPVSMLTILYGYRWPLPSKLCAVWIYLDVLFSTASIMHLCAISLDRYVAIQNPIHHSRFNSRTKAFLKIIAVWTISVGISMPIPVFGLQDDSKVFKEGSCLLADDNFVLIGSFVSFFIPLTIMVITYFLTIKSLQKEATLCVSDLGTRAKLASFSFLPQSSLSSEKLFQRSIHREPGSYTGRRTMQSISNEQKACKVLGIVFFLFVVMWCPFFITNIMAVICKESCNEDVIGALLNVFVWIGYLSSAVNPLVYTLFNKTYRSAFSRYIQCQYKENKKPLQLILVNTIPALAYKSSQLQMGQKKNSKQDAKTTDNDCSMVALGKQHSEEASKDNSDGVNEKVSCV
T3 sequence (P35367 whole entry): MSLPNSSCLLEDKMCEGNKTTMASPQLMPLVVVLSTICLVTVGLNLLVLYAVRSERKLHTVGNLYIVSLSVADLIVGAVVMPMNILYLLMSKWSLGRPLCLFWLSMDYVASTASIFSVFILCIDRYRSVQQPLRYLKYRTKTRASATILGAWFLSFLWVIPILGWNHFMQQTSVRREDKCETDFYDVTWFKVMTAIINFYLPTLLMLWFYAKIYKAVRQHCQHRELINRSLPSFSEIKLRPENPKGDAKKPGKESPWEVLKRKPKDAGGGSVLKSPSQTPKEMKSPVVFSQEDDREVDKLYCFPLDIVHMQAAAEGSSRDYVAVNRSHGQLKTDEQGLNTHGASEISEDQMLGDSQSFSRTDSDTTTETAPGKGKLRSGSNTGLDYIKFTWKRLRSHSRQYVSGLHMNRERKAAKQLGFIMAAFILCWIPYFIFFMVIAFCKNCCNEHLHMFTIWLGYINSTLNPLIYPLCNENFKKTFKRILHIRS
T4 sequence (P50406 whole entry): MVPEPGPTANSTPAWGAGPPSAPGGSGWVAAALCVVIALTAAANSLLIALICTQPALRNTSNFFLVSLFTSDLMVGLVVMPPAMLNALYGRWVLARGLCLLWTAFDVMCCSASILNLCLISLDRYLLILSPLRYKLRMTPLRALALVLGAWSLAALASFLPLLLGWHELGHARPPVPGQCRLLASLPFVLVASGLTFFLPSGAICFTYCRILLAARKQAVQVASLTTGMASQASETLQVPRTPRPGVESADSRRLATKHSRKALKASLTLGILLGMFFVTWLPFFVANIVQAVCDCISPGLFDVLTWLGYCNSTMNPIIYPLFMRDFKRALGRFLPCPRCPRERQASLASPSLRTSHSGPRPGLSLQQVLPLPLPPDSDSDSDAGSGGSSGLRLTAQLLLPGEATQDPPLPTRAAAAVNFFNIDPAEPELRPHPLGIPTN
T2 sequence (P34969 whole entry): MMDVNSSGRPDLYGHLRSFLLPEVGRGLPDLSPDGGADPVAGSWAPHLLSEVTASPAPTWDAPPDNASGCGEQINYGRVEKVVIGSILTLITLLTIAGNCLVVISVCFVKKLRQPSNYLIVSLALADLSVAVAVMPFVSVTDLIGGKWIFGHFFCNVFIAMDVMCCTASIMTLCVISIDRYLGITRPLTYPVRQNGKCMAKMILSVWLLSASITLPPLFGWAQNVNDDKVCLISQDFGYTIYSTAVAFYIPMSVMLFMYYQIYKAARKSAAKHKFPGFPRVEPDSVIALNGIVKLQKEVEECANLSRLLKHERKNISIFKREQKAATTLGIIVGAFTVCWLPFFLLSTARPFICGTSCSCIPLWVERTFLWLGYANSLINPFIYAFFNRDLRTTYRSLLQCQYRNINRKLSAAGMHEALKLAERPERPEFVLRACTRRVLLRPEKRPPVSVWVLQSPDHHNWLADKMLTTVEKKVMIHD

Row | Compound | inhibition at 1 µM (M3 muscarinic receptors) [%] | inhibition at 1 µM (5-HT7 receptor) [%] | inhibition at 1 µM [1] [%] | inhibition at 1 µM (5-HT6 receptor) [%] | inhibition at 1 µM [2] [%] | inhibition at 1 µM (5-HT2C receptor) [%] | inhibition at 1 µM (receptors D4.4) [%] | inhibition at 1 µM (5-HT2A receptor) [%] | pKi (5-HT6 receptor) | M3 [%] (M3 muscarinic receptors) | 5-HT7 [%] (5-HT7 receptor) | H1 [%] [1] [%] | 5-HT6 [%] (5-HT6 receptor) | D3 [%] [2] [%] | 5-HT2C [%] (5-HT2C receptor) | D4.4 [%] (receptors D4.4) | 5-HT2A [%] (5-HT2A receptor) | pKi (5-HT2A receptor)
1 | Cc1cc(S(=O)(=O)NCC2CCN(CCOc3cccc4c3OCCO4)C2)c(C)s1 (stereo not shown) [Compound 312, N-[[1-[2-(2,3-Dihydro-1,4-benzodioxin-5-yloxy)ethyl]pyrrolidin-3-yl]methyl]-2,5-dimethylthiophene-3-sulphonamide] | 10 | 86 | 35 | 19 | 36 | 55 | 52 | 87 | – | – | – | – | – | – | – | – | – | –
2 | O=S(=O)(NC1CCN(CCCc2c[nH]c3ccc(Cl)cc23)C1)c1cccc(Cl)c1 (stereo not shown) [Compound 84, 3-Chloro-N-[1-[3-(5-chloro-1H-indol-3-yl)propyl]pyrrolidin-3-yl]benzenesulphonamide] | 3 | 98 | 79 | 96 | 99 | 88 | 94 | 78 | 7.74 | – | – | – | – | – | – | – | – | –
3 | O=S(=O)(NC1CCN(CCOc2cccc3[nH]ccc23)CC1)c1ccccc1 [Compound 55, N-[1-[2-(1H-Indol-4-yloxy)ethyl]-4-piperidine]benzenesulphonamide] | – | – | – | – | – | – | – | – | – | −1 | 96 | 0 | 3 | 93 | 30 | 31 | 94 | –
4 | O=S(=O)(NC1CN(CCOc2cccc3[nH]ccc23)C1)c1ccc(F)cc1 [Compound 46, 4-Fluoro-N-[1-[2-(1H-indol-4-yloxy)ethyl]azetidin-3-yl]benzene-sulphonamide] | -13 | 100 | 6 | 9 | 104 | 21 | 72 | 34 | – | – | – | – | – | – | – | – | – | –
5 | O=S(=O)(NC1CCN(CCCc2c[nH]c3ccc(Cl)cc23)C1)c1cccc(F)c1 (stereo not shown) [Compound 82, N-[1-[3-(5-Chloro-1H-indol-3-yl)propyl]pyrrolidin-3-yl]-3-fluoro-benzene-sulphonamide] | 9 | 96 | 61 | 93 | 94 | 82 | 94 | 91 | 7.43 | – | – | – | – | – | – | – | – | –
6 | Cc1c(S(=O)(=O)N[C@H]2CCN(CCCc3noc4cc(F)ccc34)C2)sc2ccc(Cl)cc12 [Compound 205, 5-Chloro-N-[(3S)-1-[3-(6-fluoro-1,2-benzoxazol-3-yl)propyl]pyrrolidin-3-yl]-3-methyl-benzothiophene-2-sulphonamide] | 3 | 98 | 50 | 94 | 99 | 86 | 73 | – | 7.39 | – | – | – | – | – | – | – | – | 8.80
7 | N-[[1-[2-[(2,2-Dimethyl-3H-benzofuran-7-yl)oxy]ethyl]azetidin-3-yl]methyl]-3-hydroxy-benzenesulphonamide [Compound 111] | – | – | – | – | – | – | – | – | – | 14 | 100 | 38 | 41 | 87 | 87 | 61 | 92 | –
8 | CC(C)(C)c1ccc(S(=O)(=O)NCC2CN(CCOc3cccc4c3OCCO4)C2)cc1 [Compound 181, 4-tert-Butyl-N-[[1-[2-(2,3-dihydro-1,4-benzodioxin-5-yloxy)ethyl]azetidin-3-yl]methyl]benzenesulphonamide] | 0 | 92 | 27 | 30 | 77 | 93 | 64 | 89 | – | – | – | – | – | – | – | – | – | –
9 | COc1ccc2cc(S(=O)(=O)N[C@@H]3CCN(CCCc4noc5cc(F)ccc45)C3)ccc2c1 [Compound 230, N-[(3R)-1-[3-(6-Fluoro-1,2-benzoxazol-3-yl)propyl]pyrrolidin-3-yl]-6-methoxy-naphthalene-2-sulphonamide] | 15 | 87 | 71 | 96 | 99 | 91 | 88 | – | 7.82 | – | – | – | – | – | – | – | – | 9.40
10 | O=S(=O)(NC1CN(CCOc2cccc3c2OCCO3)C1)c1cccc(F)c1 [Compound 89, N-[1-[2-(2,3-Dihydro-1,4-benzodioxan-8-yloxy)ethyl]azetidin-3-yl]-3-fluoro-benzenesulphonamide] | – | – | – | – | – | – | – | – | – | −6 | 96 | 3 | 19 | 23 | 53 | 22 | 74 | –
11 | O=S(=O)(NCC1CCN(CCCc2noc3cc(F)ccc23)C1)c1ccc2cc(Cl)ccc2c1 (stereo not shown) [Compound 237, 6-Chloro-N-[[1-[3-(6-fluoro-1,2-benzoxazol-3-yl)propyl]pyrrolidin-3-yl]methyl]naphthalene-2-sulphonamide] | 16 | 96 | 66 | 87 | 89 | 79 | 48 | 97 | – | – | – | – | – | – | – | – | – | –
12 | O=S(=O)(NCC1CCN(CCOc2cccc3c2OCCO3)C1)c1cccc(O)c1 (stereo not shown) [Compound 303, N-[[1-[2-(2,3-Dihydro-1,4-benzodioxin-5-yloxy)ethyl]pyrrolidin-3-yl]-methyl]-3-hydroxy-benzenesulphonamide] | 9 | 98 | 68 | 48 | 52 | 47 | 39 | 96 | – | – | – | – | – | – | – | – | – | –
13 | O=S(=O)(NCC1CN(CCOc2cccc3c2OCCO3)C1)c1ccc(Cl)c(Cl)c1 [Compound 183, 3,4-Dichloro-N-[[1-[2-(2,3-dihydro-1,4-benzodioxin-5-yloxy)ethyl]azetidin-3-yl]methyl]benzenesulphonamide] | 13 | 102 | 42 | 81 | 79 | 98 | 80 | 94 | – | – | – | – | – | – | – | – | – | –
14 | Cc1c(S(=O)(=O)N[C@H]2CCN(CCCc3noc4cc(F)ccc34)C2)sc2ccc(F)cc12 [Compound 203, 5-Fluoro-N-[(3S)-1-[3-(6-fluoro-1,2-benzoxazol-3-yl)propyl]pyrrolidin-3-yl]-3-methyl-benzothiophene-2-sulphonamide] | 12 | 99 | 67 | 100 | 95 | 90 | 78 | 99 | 7.92 | – | – | – | – | – | – | – | – | 9.15
